{"source": "patent US20220133738A1", "about": "“GENOTYPE AND DOSE-DEPENDENT RESPONSE TO AN ASBTI IN PATIENTS WITH BILE SALT EXPORT PUMP DEFICIENCY” (MIRUM PHARMACEUTICALS, INC., priority 2019, published 2022)", "assay_type_in_all_cases": "in vivo, human", "key": {"[1]": {"test_system": "adults with primary sclerosing cholangitis (PSC)", "test": "CAMEO 14-week single-arm open-label phase 2a study of maralixibat in primary sclerosing cholangitis", "method": "Participants were adults aged 18-80 years with a diagnosis of PSC. PSC diagnosis included a documented history of alkaline phosphatase (ALP) levels greater than 1.5 times above the upper limit of normal, biliary obstruction, and histological findings consistent with PSC diagnosis (if previously biopsied). The study enrolled 27 adults.\nEfficacy was assessed by measuring at baseline and throughout the study sBA concentration, serum 7αC4 concentration (a marker of de novo bile acid synthesis), serum aoutotaxin concentration, LDL-C concentration, serum total cholesterol concentration, serum liver enzyme concentrations, and pruritus severity. Pruritus severity was determined by calculating Adult Itch Reported Outcome (ITCHRO) weekly sum scores and average daily scores (mean score over a 7-day period). Participants self-reported the ITCHRO daily on a scale 0-10 (0=no pruritus; 10=most severe pruritus).\nOutcomes were assessed in the overall study population and in subgroups of participants (A) with any pruritus at baseline or (B) with an ITCHRO average daily score ≥4 out of 10 at baseline. Efficacy endpoints were based on change from baseline to week 14 or early termination (ET) and were analyzed using paired t-tests or Wilcoxon signed rank tests."}, "[2]": {"test_system": "overweight and obese adults", "test": "Dose-ranging phase 1 clinical study (NCT02475317): fecal bile acid excretion with maralixibat and volixibat", "details": "for fBA excretion, mean change from baseline: baseline to day 6 and 7"}, "[3]": {"test_system": "children with progressive familial intrahepatic cholestasis (PFIC)", "test": "INDIGO phase 2 open-label efficacy and safety study of maralixibat in children with PFIC", "excerpt": "The HRQoL used was the […] QUALITY OF LIFE INVENTORY (PedsQL)."}, "[4]": {"test_system": "children with progressive familial intrahepatic cholestasis (PFIC)", "test": "INDIGO phase 2 open-label efficacy and safety study of maralixibat in children with PFIC", "remark": "listed apart in the source"}, "[5]": {"details": "individual participants A-F with ITCHRO daily score ≥4 at baseline, one line per participant"}, "[6]": {"details": "participants with ITCHRO daily score ≥4 at baseline"}}, "note": "Where “and” joins values, the source holds several entries; their conditions need not be identical. Equal entries are not always repeated."}
{"compound": "CCCCC1(CCCC)CS(=O)(=O)c2ccc(N(C)C)cc2[C@@H](c2ccc(OCc3ccc(C[N+]45CCN(CC4)CC5)cc3)cc2)[C@H]1O", "note": "[maralixibat]", "values": [{"measurement": "tolerability", "setting": "[1]; adults with PSC, 14 weeks", "result": "well tolerated"}, {"measurement": "participants with worsening of pruritus by >1 point", "setting": "[1]; baseline to week 14", "result": "No participants"}, {"measurement": "Changes in serum total bilirubin, alanine aminotransferase, aspartate aminotransferase, and alkaline phosphatase concentrations", "setting": "[1]; baseline to week 14/ET", "result": "not statistically significant"}, {"measurement": "ItchRO average daily score (0-10 scale), Change from baseline to week 14/ET", "setting": "[1]; [5]", "result": "−4.6 and −1.7 and −3.7 (2×) and −9.1 and −4.7"}, {"measurement": "ItchRO average daily score (0-10 scale), Week 14/ET", "setting": "[1]; [5]", "result": "1.3 and 5.1 and 3.1 and 2.3 and 0 (2×)"}, {"measurement": "Mean conjugated bilirubin levels, increase", "setting": "[1]; overall population", "result": 0.19, "unit": "mg/dL"}, {"measurement": "total cholesterol, mean change", "setting": "[1]; overall population", "result": -21.2, "unit": "mg/dL"}, {"measurement": "ITCHRO weekly sum scores, decrease from baseline", "setting": "[1]; overall population, baseline to week 14/ET, 10 mg/day maintenance", "result": 51, "unit": "%"}, {"measurement": "serum LCL-C concentration, change from baseline", "setting": "[1]; overall population, SD 17.6", "result": -16.3, "unit": "mg/dL"}, {"measurement": "serum autotaxin concentration, change from baseline", "setting": "[1]; overall population, SD 319", "result": -148, "unit": "ng/mL"}, {"measurement": "Mean levels of 7αC4, increase from baseline", "setting": "[1]; overall, week 14/ET", "result": 130, "unit": "%"}, {"measurement": "sBA levels, decrease from baseline", "setting": "[1]; overall, week 14/ET", "result": 38, "unit": "%"}, {"measurement": "7αC4, mean increase from baseline", "setting": "[1]; overall, week 14/ET, SD 13.6", "result": 11.1, "unit": "ng/mL"}, {"measurement": "sBA levels, mean change from baseline", "setting": "[1]; overall, week 14/ET, SD 31.4", "result": -14.8, "unit": "µmol/L"}, {"measurement": "Mean levels of 7αC4, increase from baseline", "setting": "[1]; [6]", "result": 107, "unit": "%"}, {"measurement": "sBA levels, decrease from baseline", "setting": "[1]; [6]", "result": 45, "unit": "%"}, {"measurement": "total cholesterol, mean change", "setting": "[1]; [6]", "result": -32.0, "unit": "mg/dL"}, {"measurement": "ITCHRO weekly sum scores, decrease from baseline", "setting": "[1]; participants with ITCHRO daily score ≥4 out of 10 at baseline (n=6), week 14/ET", "result": 70, "unit": "%"}, {"measurement": "ITCHRO weekly sum scores, decrease from baseline", "setting": "[1]; participants with any pruritus at baseline (n=18), week 14/ET", "result": 53, "unit": "%"}, {"measurement": "participants with ITCHRO average daily score improved by >1 point", "setting": "[1]; week 14/ET", "result": 29.6, "unit": "%"}, {"measurement": "participants with ITCHRO average daily score improved by >3 points", "setting": "[1]; week 14/ET", "result": 22.2, "unit": "%"}, {"measurement": "fBA excretion, mean change from baseline", "setting": "[2]; 10 mg dose (QD), 7 days", "result": 515, "unit": "µmol"}, {"measurement": "fBA excretion, mean change from baseline", "setting": "[2]; 20 mg dose (QD), 7 days", "result": 532, "unit": "µmol"}, {"measurement": "fBA excretion, mean change from baseline", "setting": "[2]; 50 mg BID, 7 days", "result": 1251, "unit": "µmol"}, {"measurement": "fBA excretion, mean change from baseline", "setting": "[2]; 100 mg QD, 7 days", "result": 1144, "unit": "µmol"}, {"measurement": "fBA excretion, dose dependence", "setting": "[2]; across tested doses, 7 days", "result": "increased in a dose-dependent manner"}, {"measurement": "treatment-emergent adverse events", "setting": "[2]; all doses, 7 days", "result": "mild, and none were serious"}, {"measurement": "Mean serum 7αC4", "setting": "[2]; baseline to day 7, greatest change at maralixibat 50 mg BID", "result": "increased"}, {"measurement": "Mean sBA levels", "setting": "[2]; day 7 versus baseline", "result": "not elevated"}, {"measurement": "Multi-parameter Responders (n/N)", "setting": "[3]; Mild PFIC 2 (N = 7)", "result": "1/7"}, {"measurement": "Multi-parameter Responders (n/N)", "setting": "[3]; Moderate PFIC 2 (N = 12)", "result": "6/12"}, {"measurement": "Multi-parameter Responders (%)", "setting": "[3]; Non-truncating BSEP (N = 19)", "result": "(36.8%)"}, {"measurement": "Multi-parameter Responders (n/N)", "setting": "[3]; Non-truncating BSEP (N = 19), response = >70% reduction or normalization in sBA and >1.0 reduction or <1.0 ITCHRO(OBS)", "result": "7/19"}, {"measurement": "Multi-parameter Responders (n/N)", "setting": "[3]; Truncating BSEP (N = 6)", "result": "0/6"}, {"measurement": "7αC4:sBA ratio", "setting": "[3]; high-dose responder, prior to administration of 560 μg/kg/day", "result": 12, "unit": "times baseline"}, {"measurement": "Response (observed response)", "setting": "[3]; individual PFIC 2 participants, one line per Subject ID of Table 3, (No reponse [sic] / Rapid complete response / Good response), max dose 280 or 560 μg/kg/day", "result": "Rapid (4×) and No (18×) and Good"}, {"measurement": "7αC4:sBA ratio, mean change from baseline at week 48", "setting": "[3]; low-dose responders (range, 5-3982)", "result": 1388, "unit": "times baseline ratio"}, {"measurement": "7αC4 concentrations at 48 weeks relative to baseline", "setting": "[3]; non-responders (range, 0.5-6)", "result": 1.8, "unit": "× baseline"}, {"measurement": "responders in long-term extension", "setting": "[3]; patients having an ABCB11 gene with a truncating mutation", "result": "no patients"}, {"measurement": "patients with ≥1.0 pt. reduction in ITCHRO(OBS) score", "setting": "[3]; patients with non-truncating BSEP mutations, FIG. 6", "result": "10/19"}, {"measurement": "sBA levels Normalized (±≤8.5 μmol/L), n", "setting": "[3]; responders (n = 6) by week 48", "result": 4}, {"measurement": "Response", "setting": "[3]; subject 016054, moderate PFIC 2, wrapped cell r43-r46 reads 'No response until 560 reached'", "result": "No"}, {"measurement": "PedsQL total score, change from baseline to week 48, mean", "setting": "[3]; week 48", "result": "+8.2"}, {"measurement": "multi-parameter responders among mild PFIC 2 patients", "setting": "[4]; 280 μg/kg QD", "result": "1 of 7"}, {"measurement": "moderate PFIC 2 patients responsive only at the higher dose (high-dose responder)", "setting": "[4]; 280 μg/kg twice daily", "result": "1 of 12"}, {"measurement": "responders among moderate PFIC 2 patients", "setting": "[4]; 280 μg/kg/day by week 48", "result": "5 of 12"}, {"measurement": "Multi-parameter Responders (%)", "setting": "[4]; Mild PFIC 2 (N = 7)", "result": "(14.3%)"}, {"measurement": "Multi-parameter Responders (%)", "setting": "[4]; Moderate PFIC 2 (N = 12)", "result": "(50%)"}, {"measurement": "Multi-parameter Responders (%)", "setting": "[4]; Truncating BSEP (N = 6)", "result": "(0%)"}, {"measurement": "multi-parameter response", "setting": "[4]; all PFIC 1 patients and all patients harboring a truncating ABCB11 mutation", "result": "not multi-parameter responders"}, {"measurement": "increase in C4 levels relative to baseline", "setting": "[4]; all low-dose responders (280 μg/kg/day), within 13 weeks of first administration", "result": "at least 2.5 fold"}, {"measurement": "serum ALT, AST, and bilirubin concentrations over time", "setting": "[4]; all low-dose responders, within 2-6 months of first administration", "result": "normalized or only mildly elevated"}, {"measurement": "height Z-score", "setting": "[4]; high dose responder, following treatment response on sBA", "result": "increase in height Z-score"}, {"measurement": "7αC4:sBA ratio", "setting": "[4]; high-dose responder, upon administration of 560 μg/kg/day", "result": 1770, "unit": "times baseline"}, {"measurement": "cholestasis markers after dose increase", "setting": "[4]; low-dose responder losing response in long-term extension, raised to 280 μg/kg BID at 640-730 days", "result": "sBA concentration decreased, severity of pruritus decreased, serum 7αC4 concentration increased, and 7αC4:sBA ratio increased"}, {"measurement": "7αC4 concentrations at 48 weeks relative to baseline", "setting": "[4]; low-dose responders (range, 3-43)", "result": 14, "unit": "× baseline"}, {"measurement": "growth (height Z-score change from baseline)", "setting": "[4]; low-dose responders, FIG. 4", "result": "improved growth relative to baseline"}, {"measurement": "7αC4:sBA ratio, mean change from baseline at week 48", "setting": "[4]; non-responders (range, 0.43-12)", "result": 1.9, "unit": "times baseline ratio"}, {"measurement": "duration of maintained response", "setting": "[4]; responders in the INDIGO study", "result": "for over a year and for up to or beyond 5 years"}, {"measurement": "Response: reduction in BAs", "setting": "[4]; subject 080051-L, mild PFIC 2", "result": ">70", "unit": "%"}, {"measurement": "response at the higher dose in prior non-responders", "setting": "[4]; three non-truncating PFIC 2 patients without response at 280 μg/kg/day given 560 μg/kg/day", "result": "one (mentioned above) responded at the higher dose"}]}
